Biological target: T1, human PKCθ full length enzyme (Homo sapiens, UniProt Q04759)
T1 construct: human PKCθ full length enzyme (Panvera Catalog No. P2996); purchased Panvera P2996
Assay: PKCθ IMAP Assay
Assay type: biochemical
Conditions: average value when one or more samples were tested; ATP 6 uM, PKCθ 1 nM
How it was run: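 Full-length human PKCθ (1 nM final) with 6 uM ATP and 100 nM 5FAM-labelled peptide, 5% DMSO, 3.0 mM DTT in reaction buffer. 25 min at room temperature; IMAP bead binding 20 min, fluorescence polarization read. Compounds 2:1 serially diluted; no-ATP and no-enzyme wells as controls.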

T1 sequence (Q04759 whole entry): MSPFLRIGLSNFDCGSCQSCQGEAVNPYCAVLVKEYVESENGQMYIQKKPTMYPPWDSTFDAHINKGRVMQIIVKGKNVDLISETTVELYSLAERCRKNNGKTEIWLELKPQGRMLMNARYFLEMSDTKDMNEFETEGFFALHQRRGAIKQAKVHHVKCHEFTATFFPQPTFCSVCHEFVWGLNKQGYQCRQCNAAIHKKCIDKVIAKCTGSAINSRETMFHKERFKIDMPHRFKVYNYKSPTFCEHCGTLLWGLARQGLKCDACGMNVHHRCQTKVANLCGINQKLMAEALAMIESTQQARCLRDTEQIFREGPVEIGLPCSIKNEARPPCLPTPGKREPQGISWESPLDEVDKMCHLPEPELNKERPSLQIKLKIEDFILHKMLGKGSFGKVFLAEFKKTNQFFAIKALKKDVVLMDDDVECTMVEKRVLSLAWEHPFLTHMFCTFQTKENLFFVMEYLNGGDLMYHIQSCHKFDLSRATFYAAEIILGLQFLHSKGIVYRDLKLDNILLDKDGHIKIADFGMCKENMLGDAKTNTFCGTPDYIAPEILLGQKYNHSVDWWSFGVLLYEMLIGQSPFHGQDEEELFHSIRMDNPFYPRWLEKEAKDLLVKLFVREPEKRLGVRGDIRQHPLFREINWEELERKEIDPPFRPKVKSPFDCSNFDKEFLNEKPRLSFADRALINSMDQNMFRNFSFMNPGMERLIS

Point of comparison: `CNS(=O)(=O)c1ccc(-c2sc3ncc(C#N)c(Nc4ccc5[nH]ccc5c4)c3c2C)cc1` [Compound 415, 4-[5-cyano-4-(1H-indol-5-ylamino)-3-methylthieno[2,3-b]pyridin-2-yl]-N-methylbenzenesulfonamide], IC50 642 nM. Against it:
- COc1cccc(/C=C/c2cc3c(Nc4ccc5[nH]ccc5c4)c(C#N)cnc3s2)c1 [Compound 404, 4-(1H-indol-5-ylamino)-2-[(E)-2-(3-methoxyphenyl)vinyl]thieno[2,3-b]pyridine-5-carbonitrile] — 1.8-fold higher, 1140 nM
- COc1ccc(/C=C/c2cc3c(Nc4ccc5[nH]ccc5c4)c(C#N)cnc3s2)cc1 [Compound 405, 4-(1H-indol-5-ylamino)-2-[(E)-2-(4-methoxyphenyl)vinyl]thieno[2,3-b]pyridine-5-carbonitrile] — within 1.5-fold, 477 nM
- Cc1ccc(/C=C/c2cc3c(Nc4ccc5[nH]ccc5c4)c(C#N)cnc3s2)cc1 [Compound 406, 4-(1H-indol-5-ylamino)-2-[(E)-2-(4-methylphenyl)vinyl]thieno[2,3-b]pyridine-5-carbonitrile] — 19-fold higher, 12000 nM
- N#Cc1cnc2sc(/C=C/c3ccc(C(F)(F)F)cc3)cc2c1Nc1ccc2[nH]ccc2c1 [Compound 408, 4-(1H-indol-5-ylamino)-2-{(E)-2-[4-(trifluoromethyl)phenyl]vinyl}thieno[2,3-b]pyridine-5-carbonitrile] — 37-fold higher, 23500 nM
- N#Cc1cnc2sc(/C=C/Cc3ccccc3)cc2c1Nc1ccc2[nH]ccc2c1 [Compound 409, 4-(1H-indol-5-ylamino)-2-[(1E)-3-phenylprop-1-en-1-yl]thieno[2,3-b]pyridine-5-carbonitrile] — 5.8-fold higher, 3700 nM
- C=C(c1ccccc1)c1cc2c(Nc3ccc4[nH]ccc4c3)c(C#N)cnc2s1 [Compound 410, 4-(1H-indol-5-ylamino)-2-(1-phenylvinyl)thieno[2,3-b]pyridine-5-carbonitrile] — 1.6-fold higher, 1050 nM
- CCCC/C=C/c1cc2c(Nc3ccc4[nH]ccc4c3)c(C#N)cnc2s1 [Compound 411, 2-[(1E)-hex-1-en-1-yl]-4-(1H-indol-5-ylamino)thieno[2,3-b]pyridine-5-carbonitrile] — 4-fold higher, 2550 nM
- COC/C=C/c1cc2c(Nc3ccc4[nH]ccc4c3)c(C#N)cnc2s1 [Compound 412, 4-(1H-indol-5-ylamino)-2-[(1E)-3-methoxyprop-1-en-1-yl]thieno[2,3-b]pyridine-5-carbonitrile] — 1.6-fold lower, 413 nM
- Cc1c(Nc2c(C#N)cnc3sc(-c4ccc(S(N)(=O)=O)cc4)c(C)c23)ccc2[nH]ccc12 [Compound 413, 4-{5-cyano-3-methyl-4-[(4-methyl-1H-indol-5-yl)amino]thieno[2,3-b]pyridin-2-yl}benzenesulfonamide] — 92-fold lower, 7 nM
- CNS(=O)(=O)c1ccc(-c2sc3ncc(C#N)c(Nc4ccc5[nH]ccc5c4C)c3c2C)cc1 [Compound 414, 4-{5-cyano-3-methyl-4-[(4-methyl-1H-indol-5-yl)amino]thieno[2,3-b]pyridin-2-yl}-N-methylbenzenesulfonamide] — 22-fold lower, 29 nM
- Cc1c(Nc2c(C#N)cnc3sc(/C=C/c4ccccc4)cc23)ccc2[nH]ccc12 [Compound 416, 4-[(4-methyl-1H-indol-5-yl)amino]-2-[(E)-2-phenylvinyl]thieno[2,3-b]pyridine-5-carbonitrile] — 19-fold lower, 34 nM
- C=Cc1cc2c(Nc3ccc4[nH]ccc4c3C)c(C#N)cnc2s1 [Compound 417, 4-[(4-methyl-1H-indol-5-yl)amino]-2-vinylthieno[2,3-b]pyridine-5-carbonitrile] — 19-fold lower, 33 nM
- Cc1c(Nc2c(C#N)cnc3sc(C4=CCN(C(=O)OC(C)(C)C)CC4)cc23)ccc2[nH]ccc12 [Compound 418, tert-butyl 4-{5-cyano-4-[(4-methyl-1H-indol-5-yl)amino]thieno[2,3-b]pyridin-2-yl}-5,6-dihydropyridine-1(2H)-carboxylate] — 6.4-fold lower, 100 nM
- CC(C)(C)OC(=O)N1CC=C(c2cc3c(Nc4ccc5[nH]ccc5c4)c(C#N)cnc3s2)CC1 [Compound 419, tert-butyl 4-[5-cyano-4-(1H-indol-5-ylamino)thieno[2,3-b]pyridin-2-yl]-3,6-dihydropyridine-1(2H)-carboxylate] — within 1.5-fold, 954 nM
- Cc1c(Nc2c(C#N)cnc3sc(/C=C/CCO)cc23)ccc2[nH]ccc12 [Compound 420, 2-[(1E)-4-hydroxybut-1-en-1-yl]-4-[(4-methyl-1H-indol-5-yl)amino]thieno[2,3-b]pyridine-5-carbonitrile] — 46-fold lower, 14 nM
- Cc1c(Nc2c(C#N)cnc3sc(C4=CCCCC4)cc23)ccc2[nH]ccc12 [Compound 421, 2-cyclohex-1-en-1-yl-4-[(4-methyl-1H-indol-5-yl)amino]thieno[2,3-b]pyridine-5-carbonitrile] — 2-fold lower, 324 nM
- COC/C=C/c1cc2c(Nc3ccc4[nH]ccc4c3C)c(C#N)cnc2s1 [Compound 422, 2-[(1E)-3-methoxyprop-1-en-1-yl]-4-[(4-methyl-1H-indol-5-yl)amino]thieno[2,3-b]pyridine-5-carbonitrile] — 9.3-fold lower, 69 nM
- Cc1c(Nc2c(C#N)cnc3sc(-c4cccc(C(=O)N5CCCC5)c4)cc23)ccc2[nH]ccc12 [Compound 423, 4-[(4-methyl-1H-indol-5-yl)amino]-2-[3-(pyrrolidin-1-ylcarbonyl)phenyl]thieno[2,3-b]pyridine-5-carbonitrile] — 11-fold lower, 58 nM
- Cc1c(Nc2c(C#N)cnc3sc(-c4ccccc4)c(C)c23)ccc2[nH]ccc12 [Compound 424, 3-methyl-4-[(4-methyl-1H-indol-5-yl)amino]-2-phenylthieno[2,3-b]pyridine-5-carbonitrile] — 3.3-fold lower, 194 nM
- Cc1c(Nc2c(C#N)cnc3sc(/C=C/c4ccccc4)c(C)c23)ccc2[nH]ccc12 [Compound 425, 3-methyl-4-[(4-methyl-1H-indol-5-yl)amino]-2-[(E)-2-phenylvinyl]thieno[2,3-b]pyridine-5-carbonitrile] — 6.8-fold lower, 95 nM
- Cc1c(Nc2c(C#N)cnc3sc(-c4cccc(NS(C)(=O)=O)c4)c(C)c23)ccc2[nH]ccc12 [Compound 426, N-(3-{5-cyano-3-methyl-4-[(4-methyl-1H-indol-5-yl)amino]thieno[2,3-b]pyridin-2-yl}phenyl)methanesulfonamide] — 5.4-fold lower, 119 nM
- Cc1c(Nc2c(C#N)cnc3sc(-c4cccc(S(N)(=O)=O)c4)c(C)c23)ccc2[nH]ccc12 [Compound 427, 3-{5-cyano-3-methyl-4-[(4-methyl-1H-indol-5-yl)amino]thieno[2,3-b]pyridin-2-yl}benzenesulfonamide] — 19-fold lower, 34 nM
- CNS(=O)(=O)c1cccc(-c2sc3ncc(C#N)c(Nc4ccc5[nH]ccc5c4C)c3c2C)c1 [Compound 428, 3-{5-cyano-3-methyl-4-[(4-methyl-1H-indol-5-yl)amino]thieno[2,3-b]pyridin-2-yl}-N-methylbenzenesulfonamide] — 11-fold lower, 60 nM
- Cc1c(Nc2c(C#N)cnc3sc(-c4cccc(C(=O)NCCN(C)C)c4)c(C)c23)ccc2[nH]ccc12 [Compound 429, 3-{5-cyano-3-methyl-4-[(4-methyl-1H-indol-5-yl)amino]thieno[2,3-b]pyridin-2-yl}-N-[2-(dimethylamino)ethyl]benzamide] — 11-fold lower, 60 nM
- Cc1c(Nc2c(C#N)cnc3sc(-c4ccc(C(=O)NCCN(C)C)cc4)c(C)c23)ccc2[nH]ccc12 [Compound 430, 4-{5-cyano-3-methyl-4-[(4-methyl-1H-indol-5-yl)amino]thieno[2,3-b]pyridin-2-yl}-N-[2-(dimethylamino)ethyl]benzamide] — 5.5-fold lower, 116 nM

— US20070082880A1 (priority 2005, published 2007)
